The NIST ThermoML archive (doi:10.1016/j.jct.2019.03.007)

Experiment: molar heat capacity at constant pressure
Settings: 101.33 kPa, Crystal 1, DSC

O=[N+]([O-])[O-].O=[N+]([O-])[O-].[Ca+2] [calcium nitrate]
Settings	molar heat capacity at constant pressure [J/K/mol]
460.78 K	169.24
461 K	167.84
461.78 K	169.39
462 K	167.76
462.78 K	169.54
463 K	167.86
463.78 K	169.69
464 K	168.02
464.78 K	169.84
465 K	168.08
465.78 K	169.99
466 K	168.25
466.78 K	170.14
467 K	168.45
467.78 K	170.28
468 K	168.56
468.78 K	170.43
469 K	168.64
469.78 K	170.57
470 K	168.78
470.78 K	170.71
471 K	169.08
471.78 K	170.84
472 K	169
472.78 K	170.98
473 K	169.04
473.78 K	171.11
474 K	169.16
474.78 K	171.24
475 K	169.1
475.78 K	171.37
476 K	169.34
476.78 K	171.5
477 K	169.7
477.78 K	171.63
478 K	169.85
478.78 K	171.76
479 K	169.98
479.78 K	171.88
480 K	170.3
480.78 K	172.01
481 K	170.38
481.78 K	172.14
482 K	170.53
482.78 K	172.27
483 K	170.78
483.78 K	172.4
484 K	171.03
484.78 K	172.53
485 K	171.06
485.78 K	172.66
486 K	171.2
486.78 K	172.79
487 K	171.33
487.78 K	172.92
488 K	171.57
488.78 K	173.05
489 K	171.63
489.78 K	173.19
490 K	171.74
490.78 K	173.32
491 K	171.84
491.78 K	173.45
492 K	172.06
492.78 K	173.58
493 K	172.18
493.78 K	173.7
494 K	172.32
494.78 K	173.83
495 K	172.25
495.78 K	173.96
496 K	172.55
496.78 K	174.08
497 K	172.8
497.78 K	174.21
498 K	172.81
498.78 K	174.34
499 K	172.68
499.78 K	174.47
500 K	172.79
500.78 K	174.6
501 K	172.74
501.78 K	174.72
502 K	172.79
502.78 K	174.85
503 K	172.93
503.78 K	174.98
504 K	173.02
504.78 K	175.1
505 K	173.14
505.78 K	175.23
506 K	173.3
506.78 K	175.35
507 K	173.5
507.78 K	175.47
508 K	173.86
508.78 K	175.6
509 K	173.88
509.78 K	175.72
510 K	173.92
510.78 K	175.84
511 K	174.13
511.78 K	175.96
512 K	174.3
512.78 K	176.08
513 K	174.4
513.78 K	176.2
514 K	174.42
514.78 K	176.32
515 K	174.62
515.78 K	176.44
516 K	174.84
516.78 K	176.57
517 K	175.25
517.78 K	176.69
518 K	175.28
518.78 K	176.81
519 K	175.29
519.78 K	176.93
520 K	175.21
520.78 K	177.05
521 K	175.26
521.78 K	177.17
522 K	175.43
522.78 K	177.29
523 K	175.67
523.78 K	177.42
524 K	175.75
